{
  "source": "patent US20220281848A1",
  "about": "“PYRAZOLE-SUBSTITUTED PYRROLIDINONES AS HERBICIDES” (FMC Corporation, priority 2019, published 2022)",
  "format_in_all_cases": "in vivo",
  "key": {"plants": {"tested_on": "plants", "test": "Test D post-emergence, other plants of Tables D2 and D4", "settings": "post-emergence", "summary_of_the_method": "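Damage was rated visually from 0 (none) to 100 (total), at 20 DAA for pre-emergence and 15 d for post-emergence. Plants grew from safener-treated seed in a glasshouse at 24/18° C. or 20/16° C. day/night, 65% humidity, watered twice daily.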"}, "[1]": {"tested_on": "velvetleaf (Abutilon theophrasti, ABUTH)", "test": "Test A pre-emergence, velvetleaf", "settings": "after 13 d", "summary_of_the_method": "(§1)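 Seeds sown in pots of standard soil and sprayed one day later, pre-emergence, at 15.625, 62.5 or 250 g/ha in acetone/water (50:50) with 0.5% Tween 20. Grown in glasshouse at 24/16 °C, 14 h light, 65% humidity. Damage scored after 13 d (0 none, 100 total).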"}, "corn (Zea mays, ZEAMX)": {"tested_on": "corn (Zea mays, ZEAMX)", "test": "Test A post-emergence, corn", "settings": "after 13 d", "summary_of_the_method": "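Plants were grown 8 d in a glasshouse (24/16° C day/night, 14 h light, 65% humidity), then sprayed post-emergence at 15.625, 62.5 or 250 g/ha in acetone/water (50:50) with 0.5% Tween 20. Damage was scored visually after 13 d (0 = none, 100 = total).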"}, "[2]": {"tested_on": "redroot pigweed (Amaranthus retroflexus, AMARE)", "test": "Test A pre-emergence, redroot pigweed", "settings": "after 13 d", "summary_of_the_method": "as §1"}, "[3]": {"tested_on": "barnyardgrass (Echinochloa crus-galli, ECHCG)", "test": "Test A pre-emergence, barnyardgrass", "settings": "after 13 d", "summary_of_the_method": "as §1"}},
  "data": [
    {"smiles": "CCn1nc([C@@H]2CN(C)C(=O)[C@H]2C(=O)Nc2cccc(F)c2F)c2cccc(F)c21", "note": "[Compound 14]", "values": [
      {"measurement": "damage to plant (100=total damage to plant; 0=no damage to plant), BRAPL", "setting": "plants; rate 130, evaluated after 15 d", "result": 80},
      {"measurement": "damage to plant (100=total damage to plant; 0=no damage to plant), BRAPL", "setting": "plants; rate 250, evaluated after 15 d", "result": 70},
      {"measurement": "damage to plant (100=total damage to plant; 0=no damage to plant), BRAPL", "setting": "plants; rate 500, evaluated after 15 d", "result": 80},
      {"measurement": "damage to plant (100=total damage to plant; 0=no damage to plant), CYPES", "setting": "plants; rate 130, evaluated after 15 d", "result": 0},
      {"measurement": "damage to plant (100=total damage to plant; 0=no damage to plant), CYPES", "setting": "plants; rate 250, evaluated after 15 d", "result": 0},
      {"measurement": "damage to plant (100=total damage to plant; 0=no damage to plant), CYPES", "setting": "plants; rate 500, evaluated after 15 d", "result": 0},
      {"measurement": "damage to plant (100=total damage to plant; 0=no damage to plant), DIGSA", "setting": "plants; rate 130, evaluated after 15 d", "result": 60},
      {"measurement": "damage to plant (100=total damage to plant; 0=no damage to plant), DIGSA", "setting": "plants; rate 250, evaluated after 15 d", "result": 70},
      {"measurement": "damage to plant (100=total damage to plant; 0=no damage to plant), DIGSA", "setting": "plants; rate 500, evaluated after 15 d", "result": 70},
      {"measurement": "damage to plant (100=total damage to plant; 0=no damage to plant), ECHCG", "setting": "plants; rate 250, evaluated after 15 d", "result": 80},
      {"measurement": "damage to plant (100=total damage to plant; 0=no damage to plant), ECHCG", "setting": "plants; rate 500, evaluated after 15 d", "result": 80},
      {"measurement": "damage to plant (100=total damage to plant; 0=no damage to plant), ELEIN", "setting": "plants; rate 130, evaluated after 15 d", "result": 0},
      {"measurement": "damage to plant (100=total damage to plant; 0=no damage to plant), ELEIN", "setting": "plants; rate 250, evaluated after 15 d", "result": 0},
      {"measurement": "damage to plant (100=total damage to plant; 0=no damage to plant), ELEIN", "setting": "plants; rate 500, evaluated after 15 d", "result": 0},
      {"measurement": "damage to plant (100=total damage to plant; 0=no damage to plant), EPHHL", "setting": "plants; rate 130, evaluated after 15 d", "result": 20},
      {"measurement": "damage to plant (100=total damage to plant; 0=no damage to plant), EPHHL", "setting": "plants; rate 250, evaluated after 15 d", "result": 30},
      {"measurement": "damage to plant (100=total damage to plant; 0=no damage to plant), EPHHL", "setting": "plants; rate 500, evaluated after 15 d", "result": 50},
      {"measurement": "damage to plant (100=total damage to plant; 0=no damage to plant), GLXMA", "setting": "plants; rate 130, evaluated after 15 d", "result": 0},
      {"measurement": "damage to plant (100=total damage to plant; 0=no damage to plant), GLXMA", "setting": "plants; rate 250, evaluated after 15 d", "result": 0},
      {"measurement": "damage to plant (100=total damage to plant; 0=no damage to plant), GLXMA", "setting": "plants; rate 500, evaluated after 15 d", "result": 0},
      {"measurement": "damage to plant (100=total damage to plant; 0=no damage to plant), IPOHE", "setting": "plants; rate 130, evaluated after 15 d", "result": 0},
      {"measurement": "damage to plant (100=total damage to plant; 0=no damage to plant), IPOHE", "setting": "plants; rate 250, evaluated after 15 d", "result": 10},
      {"measurement": "damage to plant (100=total damage to plant; 0=no damage to plant), IPOHE", "setting": "plants; rate 500, evaluated after 15 d", "result": 20},
      {"measurement": "damage to plant (100=total damage to plant; 0=no damage to plant), ORYSA", "setting": "plants; rate 130, evaluated after 15 d", "result": 0},
      {"measurement": "damage to plant (100=total damage to plant; 0=no damage to plant), ORYSA", "setting": "plants; rate 250, evaluated after 15 d", "result": 0},
      {"measurement": "damage to plant (100=total damage to plant; 0=no damage to plant), ORYSA", "setting": "plants; rate 500, evaluated after 15 d", "result": 0},
      {"measurement": "damage to plant (100=total damage to plant; 0=no damage to plant), PANMI", "setting": "plants; rate 130, evaluated after 15 d", "result": 0},
      {"measurement": "damage to plant (100=total damage to plant; 0=no damage to plant), PANMI", "setting": "plants; rate 250, evaluated after 15 d", "result": 0},
      {"measurement": "damage to plant (100=total damage to plant; 0=no damage to plant), PANMI", "setting": "plants; rate 500, evaluated after 15 d", "result": 0},
      {"measurement": "damage to plant (100=total damage to plant; 0=no damage to plant), SETFA", "setting": "plants; rate 130, evaluated after 15 d", "result": 70},
      {"measurement": "damage to plant (100=total damage to plant; 0=no damage to plant), SETFA", "setting": "plants; rate 250, evaluated after 15 d", "result": 70},
      {"measurement": "damage to plant (100=total damage to plant; 0=no damage to plant), SETFA", "setting": "plants; rate 500, evaluated after 15 d", "result": 70},
      {"measurement": "damage to plant (100=total damage to plant; 0=no damage to plant), SIDSP", "setting": "plants; rate 130, evaluated after 15 d", "result": 0},
      {"measurement": "damage to plant (100=total damage to plant; 0=no damage to plant), SIDSP", "setting": "plants; rate 250, evaluated after 15 d", "result": 0},
      {"measurement": "damage to plant (100=total damage to plant; 0=no damage to plant), SIDSP", "setting": "plants; rate 500, evaluated after 15 d", "result": 30},
      {"measurement": "damage to plant (100=total damage to plant; 0=no damage to plant), SORVU", "setting": "plants; rate 130, evaluated after 15 d", "result": 0},
      {"measurement": "damage to plant (100=total damage to plant; 0=no damage to plant), SORVU", "setting": "plants; rate 250, evaluated after 15 d", "result": 0},
      {"measurement": "damage to plant (100=total damage to plant; 0=no damage to plant), SORVU", "setting": "plants; rate 500, evaluated after 15 d", "result": 20},
      {"measurement": "damage to plant (100=total damage; 0=no damage) ABUTH", "setting": "[1]; Pre-Emergence at 15.625 g/ha", "result": 0},
      {"measurement": "damage to plant (100=total damage; 0=no damage) ABUTH", "setting": "[1]; Pre-Emergence at 62.5 g/ha", "result": 0},
      {"measurement": "damage to plant (100=total damage; 0=no damage) ABUTH", "setting": "[1]; Pre-Emergence at 250 g/ha", "result": 0},
      {"measurement": "damage to plant (100=total damage; 0=no damage) ZEAMX", "setting": "corn (Zea mays, ZEAMX); Post-Emergence at 15.625 g/ha", "result": 70},
      {"measurement": "damage to plant (100=total damage; 0=no damage) ZEAMX", "setting": "corn (Zea mays, ZEAMX); Post-Emergence at 62.5 g/ha", "result": 70},
      {"measurement": "damage to plant (100=total damage; 0=no damage) ZEAMX", "setting": "corn (Zea mays, ZEAMX); Post-Emergence at 250 g/ha", "result": 80},
      {"measurement": "damage to plant (100=total damage; 0=no damage) AMARE", "setting": "[2]; Pre-Emergence at 15.625 g/ha", "result": 0},
      {"measurement": "damage to plant (100=total damage; 0=no damage) AMARE", "setting": "[2]; Pre-Emergence at 62.5 g/ha", "result": 0},
      {"measurement": "damage to plant (100=total damage; 0=no damage) AMARE", "setting": "[2]; Pre-Emergence at 250 g/ha", "result": 0},
      {"measurement": "damage to plant (100=total damage; 0=no damage) ECHCG", "setting": "[3]; Pre-Emergence at 15.625 g/ha", "result": 60},
      {"measurement": "damage to plant (100=total damage; 0=no damage) ECHCG", "setting": "[3]; Pre-Emergence at 62.5 g/ha", "result": 80},
      {"measurement": "damage to plant (100=total damage; 0=no damage) ECHCG", "setting": "[3]; Pre-Emergence at 250 g/ha", "result": 90}
    ]}
  ]
}
